Test: Safety and tolerability
Type: in vivo, Japanese patients
Settings: just after meals, in combination with erlotinib 150 mg QD

## O=C1NC(=O)[C@@H](c2cn3c4c(cccc24)CCC3)[C@@H]1c1c[nH]c2ccccc12 [tivantinib]
Japanese EMs
  Recommended phase II dose (RP2D) of tivantinib: 360 mg BID
Japanese PMs
  Recommended phase II dose (RP2D) of tivantinib: 240 mg BID

From article PMC3844902 (British Journal of Cancer, 2013)
